Where two headings read alike, the source gives them in different places. Marks after values point to notes of the source that are not given here.
How the values were obtained:
[1] = tested on: postmenopausal women; assay: ERC-210 phase III trial, MENQOL questionnaire (sexual domain and summary score); type: in vivo; settings: for MENQOL sexual domain, average percentage of change from baseline, percentages of the three DHEA doses combined: 12 weeks; for MENQOL Avoiding intimacy, average % change from baseline to Week 12 in severity score over placebo / MENQOL Sexual desire, average % change from baseline to Week 12 in severity score over placebo / MENQOL Vaginal dryness at sexual activity, average % change from baseline to Week 12 in severity score over placebo: average of the 3 DHEA doses
Source text: The example below is intended only to illustrate a particular embodiment of the present invention and is not meant to limit the scope of the invention in any manner. This study (ERC-210) is a phase III, prospective, multicentre, randomized, placebo-controlled, and double-blind trial. […] The DHEA ovules or suppositories (Vaginorm™) containing prasterone in a lipophilic base were manufactured by Recipharm, Karlskoga, Sweden. The study was divided into two phases, namely screening followed by a treatment period of 12 weeks. The protocol was approved by the Institutional Review Board of the Centre Hospitalier de I'Université Laval (Quebec City, Canada), McGill University (Montreal, Canada), Ethica (Montreal, Canada), Eastern Virginia Medical School (Norfolk, Va., USA) and the Western Institutional Review Board (Los Angeles, USA).
The inclusion and exclusion criteria were as described in (Labrie, Archer et al. 2009b). A written informed consent was obtained from all subjects prior to the performance of any study-related procedure. […] A partial gynecological examination was performed to evaluate the aspect of the mucosa and tolerance to the medication on day 1 and at all visits. The standard laboratory tests, namely hematology (including complete blood count and coagulation), blood chemistry and urinalysis were performed at screening, day 1 and at all visits. Summary tabulations were prepared displaying the number of observations, mean or geometric mean as appropriate, SD; SEM, 95% two-sided CI; median, minimum, and maximum for continuous variables; and the number and percentage per category for categorical data. Statistical analyses were performed at the two-sided significance level of 0.05 unless otherwise stated. […] The endpoints for analysis consisted of the following: desire/interest, arousal and orgasm were self-rated by the women at screening, at day 1, and at week 4, 8 and 12 using the ASF and MENQOL questionnaires. Baseline was defined as the value on day 1, obtained before first use of the study treatment, and change from baseline to week 12 was calculated for each participant for each domain endpoint. The analysis comparing each dose of DHEA to placebo was performed by analysis of covariance, with the baseline value used as the covariate. Missing values were replaced by the last observation made.
The three questions covered by the sexual domain of the MENQOL questionnaire are change in sexual desire, intimacy avoidance and vaginal dryness during sexual activity. In our previous publication (Labrie, Archer et al. 2009a), only women having a score value at baseline and week 12 were used in the calculations while the present evaluation carries forward the last value obtained after baseline when data at week 12 are missing. […] Since the number of women is as low as 12 in some groups for some parameters after the distribution is made between women with and without MS, the calculations have also been performed with the combination of the three prasterone doses, although the number of women remains low in the corresponding placebo group.

[2] = tested on: vaginal nerve fibers; settings: rat, lamina propria and muscularis, cited from earlier work
[3] = 0.25% DHEA intravaginal daily 12 weeks, MS pain at sexual activity at baseline
[4] = 0.5% DHEA intravaginal daily 12 weeks, MS pain at sexual activity at baseline
[5] = 0.5% DHEA intravaginal daily 12 weeks, all subjects (ITT)
[6] = 1.0% DHEA intravaginal daily 12 weeks, no MS pain at sexual activity at baseline
[7] = Pool 3 Doses DHEA intravaginal daily 12 weeks, MS pain at sexual activity at baseline
[8] = Pool 3 Doses DHEA intravaginal daily 12 weeks, MS pain at sexual activity at baseline, listed as prasterone
[9] = Pool 3 Doses DHEA intravaginal daily 12 weeks, all subjects (ITT)
[10] = Pool 3 Doses DHEA intravaginal daily 12 weeks, all subjects (ITT), listed as prasterone
[11] = Pool 3 Doses DHEA intravaginal daily 12 weeks, no MS pain at sexual activity at baseline
[12] = Pool 3 Doses DHEA intravaginal daily 12 weeks, no MS pain at sexual activity at baseline, listed as prasterone

C[C@]12CC[C@H](O)CC1=CC[C@@H]1[C@@H]2CC[C@]2(C)C(=O)CC[C@@H]12 [DHEA, (3β)-3-Hydroxyandrost-5-en-17-one]
MENQOL Avoiding intimacy (Q 29) severity score, average % change from baseline to Week 12 (decreased from baseline) [1, 3]: 41%
MENQOL SUMMARY SCORE of the four domains, average % change from baseline to Week 12 (decreased from baseline) [1, 3]: 24%**
MENQOL Sexual desire (Q 27) severity score, average % change from baseline to Week 12 (decreased from baseline) [1, 3]: 48%
MENQOL Vaginal dryness during intercourse (Q28) severity score, average % change from baseline to Week 12 (decreased from baseline) [1, 3]: 45%
MENQOL SUMMARY SCORE of the four domains, average % change from baseline to Week 12 (decreased from baseline) ([1]; 0.25% DHEA intravaginal daily 12 weeks, all subjects (ITT)): 24%**
MENQOL SUMMARY SCORE of the four domains, average % change from baseline to Week 12 (decreased from baseline) ([1]; 0.25% DHEA intravaginal daily 12 weeks, no MS pain at sexual activity at baseline): 25%*
MENQOL Avoiding intimacy (Q 29) severity score, average % change from baseline to Week 12 (decreased from baseline) [1, 4]: 43%
MENQOL SUMMARY SCORE of the four domains, average % change from baseline to Week 12 (decreased from baseline) [1, 4]: 19%
MENQOL Sexual desire (Q 27) severity score, average % change from baseline to Week 12 (decreased from baseline) [1, 4]: 36%
MENQOL SUMMARY SCORE of the four domains, average % change from baseline to Week 12 (decreased from baseline) [1, 5]: 18%
MENQOL Sexual desire (Q 27) severity score, average % change from baseline to Week 12 (decreased from baseline) [1, 5]: 31%
MENQOL SUMMARY SCORE of the four domains, average % change from baseline to Week 12 (decreased from baseline) ([1]; 0.5% DHEA intravaginal daily 12 weeks, no MS pain at sexual activity at baseline): 12%
MENQOL SUMMARY SCORE of the four domains, average % change from baseline to Week 12 (decreased from baseline) ([1]; 1.0% DHEA intravaginal daily 12 weeks, MS pain at sexual activity at baseline): 22%*
MENQOL SUMMARY SCORE of the four domains, average % change from baseline to Week 12 (decreased from baseline) ([1]; 1.0% DHEA intravaginal daily 12 weeks, all subjects (ITT)): 20%*
MENQOL Avoiding intimacy (Q 29) severity score, average % change from baseline to Week 12 (decreased from baseline) [1, 6]: 27%
MENQOL SUMMARY SCORE of the four domains, average % change from baseline to Week 12 (decreased from baseline) [1, 6]: 14%
MENQOL Sexual desire (Q 27) severity score, average % change from baseline to Week 12 (decreased from baseline) [1, 6]: 35%
Changes over placebo, sum of the three questions of the MENQOL sexual function domain ([1]; MS pain group): 62.8%
Specific (above placebo) effect in MENQOL, global increase over placebo ([1]; MS pain group): 0.78 fold
MENQOL sexual domain, average percentage of change from baseline, percentages of the three DHEA doses combined ([1]; MS pain group): 49.0%
MENQOL Avoiding intimacy (Q 29) severity score, average % change from baseline to Week 12 (decreased from baseline) [1, 7]: 46.4%*
MENQOL SUMMARY SCORE of the four domains, average % change from baseline to Week 12 (decreased from baseline) [1, 7]: 21.4%*
MENQOL Sexual desire (Q 27) severity score, average % change from baseline to Week 12 (decreased from baseline) [1, 7]: 45.0%
MENQOL Sexual domain severity score, average % change from baseline to Week 12 (decreased from baseline) [1, 7]: 48.4%**
MENQOL Vaginal dryness during intercourse (Q28) severity score, average % change from baseline to Week 12 (decreased from baseline) [1, 7]: 52.4%**
MENQOL Avoiding intimacy (Q 29) severity score, average % change from baseline to Week 12 (decreased from baseline) [1, 8]: 46.4%
MENQOL SUMMARY SCORE of the four domains, average % change from baseline to Week 12 (decreased from baseline) [1, 8]: 21.4%
MENQOL Sexual desire (Q 27) severity score, average % change from baseline to Week 12 (decreased from baseline) [1, 8]: 45%
MENQOL Sexual domain severity score, average % change from baseline to Week 12 (decreased from baseline) [1, 8]: 48.4%
MENQOL Vaginal dryness during intercourse (Q28) severity score, average % change from baseline to Week 12 (decreased from baseline) [1, 8]: 52.4%
MENQOL Avoiding intimacy (Q 29) severity score, average % change from baseline to Week 12 (decreased from baseline) [1, 9]: 44.8%**
MENQOL SUMMARY SCORE of the four domains, average % change from baseline to Week 12 (decreased from baseline) [1, 9]: 20.8%**
MENQOL Sexual desire (Q 27) severity score, average % change from baseline to Week 12 (decreased from baseline) [1, 9]: 44.0%**
MENQOL Sexual domain severity score, average % change from baseline to Week 12 (decreased from baseline) [1, 9]: 46.7%**
MENQOL Vaginal dryness during intercourse (Q28) severity score, average % change from baseline to Week 12 (decreased from baseline) [1, 9]: 49.9%**
MENQOL Avoiding intimacy (Q 29) severity score, average % change from baseline to Week 12 (decreased from baseline) [1, 10]: 44.8%
MENQOL SUMMARY SCORE of the four domains, average % change from baseline to Week 12 (decreased from baseline) [1, 10]: 20.8%
MENQOL Sexual desire (Q 27) severity score, average % change from baseline to Week 12 (decreased from baseline) [1, 10]: 44%
MENQOL Sexual domain severity score, average % change from baseline to Week 12 (decreased from baseline) [1, 10]: 46.7%
MENQOL Vaginal dryness during intercourse (Q28) severity score, average % change from baseline to Week 12 (decreased from baseline) [1, 10]: 49.9%
MENQOL Avoiding intimacy (Q 29) severity score, average % change from baseline to Week 12 (decreased from baseline) [1, 11]: 36.6%*
MENQOL SUMMARY SCORE of the four domains, average % change from baseline to Week 12 (decreased from baseline) [1, 11]: 18.0%*
MENQOL Sexual desire (Q 27) severity score, average % change from baseline to Week 12 (decreased from baseline) [1, 11]: 40.2%**
MENQOL Sexual domain severity score, average % change from baseline to Week 12 (decreased from baseline) [1, 11]: 39.2%**
MENQOL Vaginal dryness during intercourse (Q28) severity score, average % change from baseline to Week 12 (decreased from baseline) [1, 11]: 38.2%**
MENQOL Avoiding intimacy (Q 29) severity score, average % change from baseline to Week 12 (decreased from baseline) [1, 12]: 36.6%
MENQOL SUMMARY SCORE of the four domains, average % change from baseline to Week 12 (decreased from baseline) [1, 12]: 18%
MENQOL Sexual desire (Q 27) severity score, average % change from baseline to Week 12 (decreased from baseline) [1, 12]: 40.2%
MENQOL Sexual domain severity score, average % change from baseline to Week 12 (decreased from baseline) [1, 12]: 39.2%
MENQOL Vaginal dryness during intercourse (Q28) severity score, average % change from baseline to Week 12 (decreased from baseline) [1, 12]: 38.2%
MENQOL Avoiding intimacy, average % change from baseline to Week 12 in severity score over placebo ([1]; MS PAIN at baseline): 21.4%*
MENQOL Sexual desire, average % change from baseline to Week 12 in severity score over placebo ([1]; MS PAIN at baseline): 18.0%
MENQOL Vaginal dryness at sexual activity, average % change from baseline to Week 12 in severity score over placebo ([1]; MS PAIN at baseline): 23.4%**
MENQOL Avoiding intimacy, average % change from baseline to Week 12 in severity score over placebo ([1]; NO MS PAIN at baseline): 27.4%*
MENQOL Sexual desire, average % change from baseline to Week 12 in severity score over placebo ([1]; NO MS PAIN at baseline): 34.1%**
MENQOL Vaginal dryness at sexual activity, average % change from baseline to Week 12 in severity score over placebo ([1]; NO MS PAIN at baseline): 38.2%**
MENQOL Avoiding intimacy, average % change from baseline to Week 12 in severity score over placebo ([1]; TOTAL (all women)): 22.8%**
MENQOL Sexual desire, average % change from baseline to Week 12 in severity score over placebo ([1]; TOTAL (all women)): 22.0%**
MENQOL Vaginal dryness at sexual activity, average % change from baseline to Week 12 in severity score over placebo ([1]; TOTAL (all women)): 26.9%**
Changes over placebo, sum of the three questions of the MENQOL sexual function domain ([1]; no MS pain group): 99.7%
Specific (above placebo) effect in MENQOL, global increase over placebo ([1]; non MS pain group): 5.5 fold
MENQOL sexual domain, average percentage of change from baseline, percentages of the three DHEA doses combined ([1]; non MS pain group): 33.3%
Higher specificity of correction of sexual dysfunction (over placebo), MENQOL ([1]; women with no MS pain versus MS pain at baseline): 6.8 fold
Density of vaginal nerve fibers [2]: increases the density of nerve fibers
Density of vaginal nerve fibers ([2]; listed as prasterone): stimulatory effect

Source: patent US20140045806A1 (priority 2012, published 2014)
